{"source": "patent US20240247031A1", "about": "“COMPOSITION FOR TREATING CANCER CONTAINING TELOMERASE-TARGETING GNRH ANTAGONIST-DERIVED PEPTIDE HS1002” (Research & Business Foundation Sungkyunkwan University, priority 2023, published 2024)", "key": {"[1]": {"target": "T1, HEK293-GnRHR cells (Homo sapiens, UniProt P30968)", "T1 construct": "GFP; expressed in transfected cells", "T1 sequence (P30968 1-328)": "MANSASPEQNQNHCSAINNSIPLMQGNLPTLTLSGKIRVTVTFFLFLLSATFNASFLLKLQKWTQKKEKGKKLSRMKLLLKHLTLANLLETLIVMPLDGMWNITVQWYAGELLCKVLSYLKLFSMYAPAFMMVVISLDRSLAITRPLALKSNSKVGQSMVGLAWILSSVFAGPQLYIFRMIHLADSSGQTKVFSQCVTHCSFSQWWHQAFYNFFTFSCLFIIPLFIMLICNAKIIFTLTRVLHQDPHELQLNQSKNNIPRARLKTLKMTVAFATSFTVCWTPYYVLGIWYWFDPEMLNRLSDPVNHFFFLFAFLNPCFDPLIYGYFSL", "experiment": "Intracellular calcium flux assay", "format": "cell-based", "conditions": "100 nM", "protocol": "(§1) Human embryonic kidney cell line (HEK293), and mouse cancer cell lines (MC38, 4T1) were purchased from the American Type Culture Collection (Manassas, VA, USA). All cell lines were grown in Dulbecco's Modified Essential Medium (DMEM) or Roswell Park Memorial Institute (RPMI) 1640 supplemented with 10% FBS, 100 U/mL penicillin, and 100 μg/mL streptomycin (WelGENE, Daegu, South Korea) in a humidified atmosphere of 5% CO2 at 37° C. To obtain GnRHR-overexpressing HEK293 (HEK293-GnRHR) cells, transfection of the pCMV-AC-GFP-GnRHR vector (HEK293-GnRHR) was performed using Lipofectamine™ 3000 according to the manufacturer's instructions (Cat. 100022052, Thermo Fisher Scientific, Waltham, MA, USA). Colonies of geneticin-resistant cells were selected by adding G418 (800 μg/mL, Sigma) to the culture medium. The HEK293-pCMV-AC-GFP vector (HEK293-Vector) cells were used as a mock-transfection group.\nIntracellular calcium mobilization was measured using the Calcium Flux Assay Kit (Cat. ab233472, abcam) in response to different concentrations of each peptide. The percentage increase was calculated relative to basal fluorescence intensity. The experiment was performed in triplicate."}, "[2]": {"target": "T1, HEK293-GnRHR cells", "experiment": "CRE-luciferase reporter assay", "format": "cell-based", "conditions": "100 nM, 24 h", "protocol": "as §1\nThe HEK293-pCMV6-AC-GFP and HEK293-GnRHR cells (4×10^4 cells/well) were grown in 96-well plates and co-transfected with a luciferase reporter plasmid containing a cAMP response element (CRE) using Lipofectamine 3000 (Life Technologies). The transfected cells were exposed to different concentrations of peptide for 24 h, and the promoter activity was measured by a dual-luciferase reporter assay system (BPS Bioscience). The firefly and Renilla luciferase activities were measured using a microplate luminometer (Thermo, Varioskan LUX Multimode Microplate Reader). The calculation of relative luciferase activities involved the normalization of the firefly luciferase activity […]."}, "[3]": {"test_system": "c-Myc, AKT, ERK1/2 in LNCaP tumor xenografts", "experiment": "Western blot of c-Myc and signaling proteins in LNCaP-xenografted tumors (FIG. 14)", "format": "in vivo, mouse", "conditions": "LNCaP xenograft; HS1002 1 mg/kg/day, LA 0.1 mg/kg/day s.c.", "protocol": "The cells and tumor tissues were homogenized using the PRO-PREP™ extraction solution (iNtRON Biotechnology, Seongnam, Korea). After incubation, the homogenate was centrifuged at 16,000×g for 20 min at 4° C., and the supernatant was collected for western blot analysis. Subsequently, an equivalent quantity of protein was separated using sodium dodecyl sulfate polyacrylamide gels and transferred onto a polyvinylidene difluoride (PVDF) membrane. The PVDF membranes were incubated with the primary antibodies overnight at 4° C., washed with tris-buffered saline, and then incubated with HRP-conjugated anti-mouse or anti-rabbit antibodies. The bands were visualized using a ChemiDoc imaging system (Bio-Rad, Hercules, CA, USA). The band intensities were determined using an Image J software.\nAll mice were purchased from Central Lab Animal Inc. ([…]). They were raised in a 12 h environmental light/dark cycle with controlled temperature (22±2° C.) conditions. The experimental protocol was approved by the Sungkyunkwan University Institutional Animal Care and Use Committee (SKKUIACUC2021-06-27-1, SKKUIACUC2023-01-07-1). For the establishment of tumors, LNCaP (1×10^7), MC38 (2×10^5), and 4T1 (1×10^6) suspended in serum-free media containing 50% Matrigel was subcutaneously administered in the right flank of mice, respectively. The tumor volumes (V) were calculated using a caliper and the standard equation: V (mm^3)=0.52 (ab^2) (a=length, b=width). Once the tumor reached 100-200 mm^3, the mice were randomly divided into different groups and subcutaneously injected with a vehicle or each peptide every day.\nTo investigate the anticancer effect of HS1002, the present inventors observed the volume of cancer cells after transplanting the cancer cells into experimental animals. Specifically, mice (4-week-old male BALB/c nude mice; Central Lab. Animal Inc., Seoul, Korea) were prepared, and tumor cells (1×10^7 LNCaP cells) suspended in 1 mL of a serum-free medium containing 50% Matrigel were percutaneously injected into the upper flank of each nude mouse. When the tumor cell volume reached about 200 mm^3, the mice were randomly assigned to a vehicle control group, a leuprolide acetate-treated group, and test groups (GV1001-treated group and HS1002-treated group), respectively. Leuprolide acetate (0.1 mg/kg/day) and GV1001 and HS1002 (1 mg/kg/day) were injected subcutaneously for 13 days."}, "[4]": {"test_system": "HEK293-Vector cells", "experiment": "CRE-luciferase reporter assay, mock-transfected cells", "format": "cell-based, human", "protocol": "as §1, with “group. […] The transfected cells were exposed to different concentrations of peptide for 24 h, and the promoter activity was measured by a dual-luciferase reporter assay system (BPS Bioscience). The firefly and Renilla luciferase activities were measured using a microplate luminometer (Thermo, Varioskan LUX Multimode Microplate Reader). […]” for “group.”"}}, "data": [{"smiles": "CCNC(=O)[C@@H]1CCCN1C(=O)[C@H](CCCNC(=N)N)NC(=O)[C@H](CC(C)C)NC(=O)[C@@H](CC(C)C)NC(=O)[C@H](Cc1ccc(O)cc1)NC(=O)[C@H](CO)NC(=O)[C@H](Cc1c[nH]c2ccccc12)NC(=O)[C@H](Cc1c[nH]cn1)NC(=O)[C@@H]1CCC(=O)N1", "note": "[LA, Leuprolide acetate, reference compound]", "values": [{"measurement": "calcium flux", "setting": "[1]", "result": "more potent effect of calcium flux in HEK293-GnRHR cells than in HEK293-Vector cells"}, {"measurement": "CRE-derived reporter gene activity", "setting": "[2]", "result": "induced CRE-derived reporter gene activity"}, {"measurement": "expression of c-Myc in tumor tissue", "setting": "[3]", "result": "significantly downregulated"}, {"measurement": "expression of p-AKT in tumor tissue", "setting": "[3]", "result": "significantly downregulated"}, {"measurement": "expression of p-ERK1/2 in tumor tissue", "setting": "[3]", "result": "significantly downregulated"}, {"measurement": "CRE-luciferase activity", "setting": "[4]", "result": "no significant change"}]}]}
